Source: patent EP0211573A1, “Novel antimicrobial active agent and its production” (NICHIREI CORPORATION, priority 1985, dated 1987)
Entries after “also recorded” stand apart in the source; their conditions may differ.

Columns and labels:
[1] = Acute toxicity, intraperitoneal administration; details: mouse, in vivo, ip, mice, in physiological saline containing gum arabic, read-out: LD₅₀
Experimental: A compound, 1 - 5 mg, dissolved in physiological saline 0.2 ml containing gum arabic is administered intra peritoneally in mice, body weight 25 g, 10 mice in one group. LD₅₀ is over 200 mg/kg.

[2] = Physico-chemical properties (solubility, nature); type: physicochemical
[3] = system: Bacillus subtilis; assay: Paper disc agar antimicrobial activity assay (inhibitory zone); type: cell-based; parameters: key to Diameter of inhibitory zone: ±: inhibitory zone slightly observed; +: inhibitroy zone < 7mm; details: paper disc 6 mm, 37 °C, 12 hours incubation
Experimental: (§1) The compound (Ia) dissolved in chloroform is immersed in paper disc, diameter 6 mm, and dried on a filter paper. Microbial strains shown in Table 1 are inoculated in agar medium, and paper discs hereinabove 1) are placed thereon then incubated at the temperature shown in the Table. Diameter of inhibitory zone is measured after 12 hours incubation.

[4] = system: Escherichia coli; assay: as above; type: cell-based; parameters: key to Diameter of inhibitory zone: ±: inhibitory zone slightly observed; +: inhibitroy zone < 7mm; details: paper disc 6 mm, 37 °C, 12 hours incubation
Experimental: as §1

[5] = system: Sarcina lutea; assay: as above; type: cell-based; parameters: key to Diameter of inhibitory zone: ±: inhibitory zone slightly observed; +: inhibitroy zone < 7mm; details: paper disc 6 mm, 37 °C, 12 hours incubation
Experimental: as §1

[6] = system: Staphylococcus aureus; assay: as above; type: cell-based; details: paper disc 6 mm, 37 °C, 12 hours incubation, read-out: Diameter of inhibitory zone
Experimental: as §1

[7] = system: Saccharomyces sake; assay: as above; type: cell-based; details: paper disc 6 mm, 27 °C, 12 hours incubation, read-out: Diameter of inhibitory zone
Experimental: as §1

Question: Which results are given for `COC1=C(OC)C(=O)c2c(O)c3c(c(O)c2C1=O)OCO3` [Ia, 5,8-dihydroxy-2,3-dimethoxy-6,7-methylenedioxy-1,4-naphthoquinone]?
Answer: LD50 [1]: > 200 mg/kg; nature [2]: acidic substance (water soluble under alkaline conditions); solubility ([2]; acidic conditions, in organic solvent): soluble; solubility ([2]; acidic conditions, in water): insoluble; solubility ([2]; alkaline conditions, in organic solvents): insoluble; solubility ([2]; alkaline conditions, in water): easily soluble; also recorded: easily soluble under neutral and acidic conditions in organic solvents such as methanol, acetone, ethyl acetate, chloroform or benzene; easily soluble under alkaline conditions in water; solubility ([2]; neutral and acidic conditions, in organic solvents such as methanol, acetone, ethyl acetate, chloroform or benzene): easily soluble; also recorded: easily soluble under neutral and acidic conditions in organic solvents such as methanol, acetone, ethyl acetate, chloroform or benzene; easily soluble under alkaline conditions in water; zone of inhibition at 14 µg/mL ([3]; Bacillus subtilis, sample density 14 μg/m ℓ, read-out: Diameter of inhibitory zone): 7.1 mm; zone of inhibition at 28 µg/mL ([3]; Bacillus subtilis, sample density 28 μg/m ℓ, read-out: Diameter of inhibitory zone): 9.5 mm; zone of inhibition at 56 µg/mL ([3]; Bacillus subtilis, sample density 56 μg/m ℓ, read-out: Diameter of inhibitory zone): 8.6 mm; zone of inhibition at 112 µg/mL ([3]; Bacillus subtilis, sample density 112 μg/m ℓ, read-out: Diameter of inhibitory zone): 13.3 mm; zone of inhibition at 224 µg/mL ([3]; Bacillus subtilis, sample density 224 μg/m ℓ, read-out: Diameter of inhibitory zone): 13.3 mm; zone of inhibition at 448 µg/mL ([3]; Bacillus subtilis, sample density 448 μg/m ℓ, read-out: Diameter of inhibitory zone): 15.5 mm; Diameter of inhibitory zone ([3]; sample density 7 μg/m ℓ): ±**; zone of inhibition at 112 µg/mL ([4]; Escherichia coli, sample density 112 μg/m ℓ, read-out: Diameter of inhibitory zone): < 7 mm; zone of inhibition at 224 µg/mL ([4]; Escherichia coli, sample density 224 μg/m ℓ, read-out: Diameter of inhibitory zone): < 7 mm; zone of inhibition at 448 µg/mL ([4]; Escherichia coli, sample density 448 μg/m ℓ, read-out: Diameter of inhibitory zone): < 7 mm; Diameter of inhibitory zone ([4]; sample density 56 μg/m ℓ): ±; zone of inhibition at 56 µg/mL ([5]; Micrococcus luteus, sample density 56 μg/m ℓ, read-out: Diameter of inhibitory zone): < 7 mm; zone of inhibition at 112 µg/mL ([5]; Micrococcus luteus, sample density 112 μg/m ℓ, read-out: Diameter of inhibitory zone): 7.4 mm; zone of inhibition at 224 µg/mL ([5]; Micrococcus luteus, sample density 224 μg/m ℓ, read-out: Diameter of inhibitory zone): 7.4 mm; zone of inhibition at 448 µg/mL ([5]; Micrococcus luteus, sample density 448 μg/m ℓ, read-out: Diameter of inhibitory zone): 7.4 mm; Diameter of inhibitory zone ([5]; sample density 14 μg/m ℓ): ±; Diameter of inhibitory zone ([5]; sample density 28 μg/m ℓ): ±; zone of inhibition at 28 µg/mL ([6]; sample density 28 μg/m ℓ): < 7 mm; zone of inhibition at 56 µg/mL ([6]; sample density 56 μg/m ℓ): < 7 mm; zone of inhibition at 112 µg/mL ([6]; sample density 112 μg/m ℓ): < 7 mm; zone of inhibition at 224 µg/mL ([6]; sample density 224 μg/m ℓ): 7.7 mm; zone of inhibition at 448 µg/mL ([6]; sample density 448 μg/m ℓ): 8.45 mm; zone of inhibition at 56 µg/mL ([7]; sample density 56 μg/m ℓ): < 7 mm; zone of inhibition at 224 µg/mL ([7]; sample density 224 μg/m ℓ): 7 mm; zone of inhibition at 448 µg/mL ([7]; sample density 448 μg/m ℓ): 7.3 mm
